Columns and labels:
atherosclerotic rabbits = experiment: In vivo PET/MR imaging of aortic inflammation in rabbits; design: species or system New Zealand White rabbits; settings: for SUVmax abdominal aorta: PET/MRI, median
Text: For the rabbit studies, 3 months old male New Zealand White (NZW) rabbits (N = 47) were purchased from Charles River Laboratories (Wilmington, MA). Randomly assigned control rabbits (N = 11) were kept on chow diet and imaged with PET/MR. Among these some animals were euthanized for biodistribution assays (N = 6) or used for time-activity characterization of aorta signal (N = 3). For the atherosclerosis model, remaining rabbits (N = 36) were placed on Western diet (initial 8 weeks on regular chow enriched with 0.3% cholesterol and 4.7% coconut oil, and the remaining time period on 0.15% enriched cholesterol diet from Research diets, Inc. Brunswick, NJ). In order to induce atherosclerotic lesions, these rabbits were subjected to two endothelial denudations of the aorta through the right and left femoral artery at 2 and 6 weeks after diet initiation, respectively, as described previously. Briefly, femoral artery angioplasty was performed under fluoroscopic guidance using a 4F-Fogarty embolectomy catheter. Once catheter is inserted, catheter is positioned in the thoracic descending aorta region. The balloon was then inflated to 2 atm. Catheter is then pulled back over the entire length of the aorta down to the iliac bifurcation, and the pullback procedure is repeated for two additional times. Catheter is then removed, and femoral artery is ligated. Rabbits with atherosclerosis were imaged 4 months after diet initiation (N = 36). Among these animals some were euthanized for ex vivo biodistribution analyses (N = 9), used for time-activity characterization of aorta signal (N = 3) or near infra-red imaging ([…]). The remaining atherosclerotic rabbits were fed a Western diet for an additional 3 months (N = 9) to advance atherosclerosis. At the end of the 3-month period, these rabbits were imaged and euthanized.
In vivo imaging in rabbits was performed on a 3 Tesla Biograph mMR (Siemens, Erlangen, Germany) Positron Emission Tomography/Magnetic Resonance Imaging (PET/MRI) clinical scanner. To establish the optimal imaging time-point for [^68Ga]Ga-DOTATATE aortic imaging in this animal model, 5 rabbits underwent dynamic PET imaging for 3 h immediately after injection of approximately 190 MBq of the tracer. Rabbits where injected intravenously via the ear vein with approximately 190 MBq of either [^18F]F- FDG or [^68Ga]Ga-DOTATATE. Rabbits undergoing [^18F]F-FDG scans were fasted for 3–4 h before injection to avoid tracer uptake in the bowels, as previously validated. […]
Using OsiriX v5.6 software (OsiriX Foundation, Geneva, Switzerland), regions of interest (ROIs) were drawn to determine organ radioactivity concentration. […]

[1] = [^68Ga]Ga-DOTATATE distribution in blood fractions (plasma vs cells); type: in vivo, New Zealand White rabbits; settings: control (N = 2) and athero4mo (N = 3) rabbits
Description: Adopting a translational approach, the rabbit studies were performed with the [^68Ga]Ga-labeled tracer, which is already being used in the clinic. [^68Ga]Ga-DOTATATE was purchased from Advanced Accelerator Applications (AAA, Millburn, NJ, USA). To determine its pharmacokinetics, three atherosclerotic rabbits and two healthy controls were injected with approximately 190 MBq of [^68Ga]Ga-DOTATATE. Venous blood was sampled at 1, 5, 10, 15, 20, 30, 60, 120, 180, 240 and 300 min after injection through the ear vein. Samples were weighed and gamma counted. Blood half-life data were fitted using a two-phase decay non-linear regression using GraphPad Prism v8.4.3 (Supplementary Table S1). To investigate the tracer blood distribution, blood samples were centrifuged at 2000 g for 15 min at 4 °C to determine the radioactivity concentration in the plasma and cellular fractions. To analyze [^68Ga]Ga-DOTATATE biodistribution, all rabbits were euthanized after the last imaging time-point using an injection of pentobarbital 100 mg/kg and exsanguination of the portal vein. Rabbits were extensively perfused with 1000 mL of saline. Following, tissues (blood, heart, aorta, liver, kidney, skeletal muscle, small and large intestine, fat, stomach, pancreas and bladder) were harvested, weighed and gamma counted.

[2] = mice; cited from earlier work
Text: This feature is important when performing in vivo imaging and especially in the vasculature, whose signal can be easily contaminated by the blood pool because of partial volume errors. […] We further used the combination of in ...

[3] = Ex vivo autoradiography of heart and aorta; type: in vivo, mice; settings: for ratio between the signal in infarcted and remote myocardium: MI mice, N = 4 per group
Description: Tissues (heart and aorta) were placed in a film cassette against a phosphorimaging plate (BASMS-2325, Fujifilm) at − 20 °C to determine the regional radioactivity distribution. Exposure time was optimized to dose, tracer, and tissue uptake differences. Tissues from the heart of [^18F]F-FDG injected animals were exposed for 5 min, [^18F]F-FDG infused aortas were exposed for 30 min and tissues from animals in the [^64Cu]Cu-DOTATATE group were exposed for 60 min. The plates were read at a pixel resolution of 25 μm with a Typhoon 7000IP plate reader (GE Healthcare, Pittsburgh, PA). Images were analyzed using ImageJ software v1.52 (Madison, WI).

SMILES | change of tracer accumulation (SUVmax abdominal aorta) athero7mo vs athero4mo (atherosclerotic rabbits; rabbits kept on Western Diet for 7 months, paired analysis, N = 7, p > 0.9999) | distribution between plasma and cells [1] | SUVmax abdominal aorta (atherosclerotic rabbits; athero4mo rabbits, circulation 120 min ([^68Ga]Ga-DOTATATE, N = 32) or 180 min ([^18F]F-FDG, N = 27)) | SUVmax abdominal aorta (atherosclerotic rabbits; athero7mo rabbits, N = 7) | SUVmax abdominal aorta (atherosclerotic rabbits; control rabbits, circulation 120 min ([^68Ga]Ga-DOTATATE, N = 10) or 180 min ([^18F]F-FDG, N = 11)) | blood half-life [2] [min] | ratio between the signal in infarcted and remote myocardium [3] | signal in atherosclerotic plaques compared to healthy (no plaque) areas of the aorta ([3]; atherosclerotic mice, N = 4)
C[C@@H](O)[C@H](NC(=O)[C@@H]1CSSC[C@H](NC(=O)[C@@H](Cc2ccccc2)NC(=O)CN2CCN(CC(=O)O)CCN(CC(=O)O)CCN(CC(=O)O)CC2)C(=O)N[C@@H](Cc2ccc(O)cc2)C(=O)N[C@H](Cc2c[nH]c3ccccc23)C(=O)N[C@@H](CCCCN)C(=O)N[C@@H]([C@@H](C)O)C(=O)N1)C(=O)O [[^68Ga]Ga-DOTATATE, metal not drawn] | did not detect a further increase in tracer accumulation | detected in plasma, rather than cells |  |  |  |  |  | 
OC[C@H]1OC(O)[C@H]([18F])[C@@H](O)[C@@H]1O (stereo partly drawn) [[^18F]F-FDG, [^18F]F-fluorodeoxyglucose] |  |  | 0.446 | 0.515 | 0.349 | 5.1 | ~1 | 
C[C@@H](O)[C@H](NC(=O)[C@@H]1CSSC[C@H](NC(=O)[C@@H](Cc2ccccc2)NC(=O)CN2CCN(CC(=O)O)CCN(CC(=O)O)CCN(CC(=O)O)CC2)C(=O)N[C@@H](Cc2ccc(O)cc2)C(=O)N[C@H](Cc2c[nH]c3ccccc23)C(=O)N[C@@H](CCCCN)C(=O)N[C@@H]([C@@H](C)O)C(=O)N1)C(=O)O [[^64Cu]Cu-DOTATATE, metal not drawn] |  |  |  |  |  |  | approximately 2 | twofold higher

Source: article PMC9007951, “Systematically evaluating DOTATATE and FDG as PET immuno-imaging tracers of cardiovascular inflammation” (Scientific Reports, 2022)
